Experimental findings from patent publication US7101915B1, “P-terphenyl compounds” (Shionogi & Co., Ltd., priority 1996, dated 2006) are described below.

SMILES strings stand for the structures. Marks after values point to notes of the source that are not given here.

Broadly, the melting point is the temperature of the solid-liquid transition. What is called IC50 is the concentration that inhibits the measured activity by half.

Data set [1] relates to anti-OVA IgE antibody titer (PCA titer). Put plainly: Suppressive effect on the IgE production against ovalbumin (OVA), PCA titer. The note with it: 40 mg/kg orally for 10 days; untreated group 9-12. In kind it is in vivo, BALB/c mice. On the procedure: Experiment 4 Suppressive Effect on the IgE Production Against Ovalbumin (OVA)
BALB/c mice (female, 8-10 weeks old) and Wistar rats (female, 8-10 weeks old) which were bought from Japan SLC, Inc. (Shizuoka) were used.
BALB/c mice were immunized by an intraperitoneal administration of 0.2 ml suspension of 2 μg of ovalbumin (OVA) and 2 mg of aluminium hydroxide gel in physiological saline. After 10 days, blood was drawn from hearts, sera were separated and stocked at −40° C. till the measurement of an IgE antibody titer.
After the compound of the present invention was dissolved or suspended in N, N-dimethylacetoamide, the mixture was diluted 20 times with miglyol 812 neutral oil. The obtained solution was orally administered to mice at 0.1 ml per mouse. The administration was continued for 10 days from the immunizing day to the day before drawing blood. IPD-1151-T (a compound described in Jpn. Pharmacol. (1993) 61, 31–39) and a compound No. 36 (a compound 36 described in J. Med. Chem. (1997) 40: 395–407) were examined as controls by the same method.
4) Measurement of Anti-OVA IgE Antibody Titer (PCA Titer)
The samples 2-fold diluted with physiological saline were prepared from the obtained mouse serum and each 50 μl of the solution was intradermally injected to backs of Wistar rats which previously hair cut. After 24 hours, a passive cutaneous anaphylaxis reaction (PCA) was induced by an intravenous injection of 0.5 ml of physiological saline containing 1 mg of OVA and 5 mg of Evans' blue dye. After 30 minutes, the rats were sacrified and the highest dilution rate of the serum giving bluing with a diameter of more than 5 mm was recorded as the PCA titer. For example, when a serum is positive for the PCA reaction till […], the anti-OVA IgE antibody titer of the mouse is defined as 7.

The test system of data set [2] is IgG1 production of mouse spleen lymphocytes. Briefly: Suppressive effect on antibody production of mouse spleen lymphocytes: IgG1. The format is cell-based, BALB/c (nu/nu) mice. The note with it: Lymphocyte, 240 h, LPS + IL-4, 10 days. On the procedure: Experiment 6 Suppressive Effect on Antibody Production of Mouse Spleen Lymphocytes 1. Experimental Method 1) Animals
BALB/c (nu/nu) mice were bought from Japan SLC, Inc. (Shizuoka) and 7 weeks old-male mice were used.
RPMI medium (Nissui Pharmaceutical Co., Ltd.) containing 10% fetal bovine serum (HyClone Lab.) inactivated at 56° C. for 30 minutes, penicillin (100 units/ml) and streptomycin (100 μg/ml) (GIBCO) was used for experiments.
Each of the compounds was dissolved in dimethylsulfoxide (Nakaraitesk) at […] and diluted with the medium to adjust a final concentration to 0.1 μg/ml −10 μg/ml.
4) Mouse Spleen Lymphocytes […]
In 96-well cultivating plate (Sumitomo Bakelite Company Limited) mouse spleen lymphocytes were inoculated 2×10^5 cells per well. […] After the cultivation for 10 days, the amount of the antibody in a supernatant was quantified by ELISA method.
7) Quantification of the IgG1, IgG2a and IgM Antibodies
In 96-well plate 50 μl of 10 μg/ml Goat Anti-Mouse Ig (IgM+G+A, H+ L) (Southern Biotechnology, Birmingham) was added and the plate was coated at 4° C. overnight. […] After washing three times with PBST, 100 μl of culture supernatant which was diluted with PBS or 100 μl of an antibody standard solution (Mouse IgG1 standard, Mouse IgG2a standard, Mouse IgM standard, BETHYL Laboratories) of a pre-determined concentration was added and incubated for 1 hour. […]

`Cc1cc(-c2ccc(OCC=C(Cl)Cl)c(F)c2)c(C)cc1-c1ccc(O)cc1` [Compound I-963] came in with a melting point of 93 to 94 °C. Also, the “PCA Titer” value in data set [1] is listed as 3.6**. Also, the 50% inhibitory concentration (IC50) in data set [2] was found to be 0.51 µg/mL.
